What all share (assay): growth of human tumour cells (NCI), 48 h
Test [1] concerns SNB-75.
For test [2], the system named is RPMI-8226.
Test [3] relates to M14.
In test [4] the test system is NCI-H23.
For test [5], the system named is UACC-62.
For test [6], the system named is A549.
Test [7] concerns HT-29.
Test [8] deals with UACC-257.
The test system of test [9] is SK-MEL-28.
Test [10] concerns ACHN.
The subject of test [11] is MCF7.
Test [12] has as its system LOX IMVI.
For test [13], the system named is NCI-H522.
For test [14], the system named is Hs-578T.
The subject of test [15] is HOP-62.
The test system of test [16] is MDA-N.
Test [17] has as its system COLO 205.
The test system of test [18] is OVCAR-8.
The subject of test [19] is HOP-92.

The structures appear in SMILES notation.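 Test compounds were applied to cells in 96-well plates for 48 hours at 5 doses. Abbreviation: GI50, concentration required for 50% inhibition of growth.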 Calls of active or inactive are those of the source. No stated cut-off is given here; in the data, active = GI50 up to about 1.1 µM and inactive = higher.

For the compound `O=C(O)c1cccc(CC(Br)C(=O)O)c1` (configuration not stated), the GI50 in test [1], in test [2], in test [3], in test [4], in [5] and in [6] was > 100 µM (inactive) throughout. Moreover, the GI50 in test [7], in test [8], in test [9], in test [10], in [11] and in [12] was > 100 µM (inactive) in each case. For the same compound, the GI50 in [13], in [14], in [15], in [16], in test [17] and in [18] was > 100 µM (inactive) throughout. Also, the GI50 in [19] is > 100 µM (inactive).

For `COC(=O)[C@@H]1[C@@H]2NC(=S)N[C@@]1(C)Oc1ccccc12`, the GI50 was 27.4 µM (inactive) in test [1]; 48.2 µM (inactive) in test [2]; 42.8 µM (inactive) in test [3]; 42.6 µM (inactive) in [4]; 78.3 µM (inactive) in [5]; 28.5 µM (inactive) in test [7]. The GI50 in test [8] is > 100 µM (inactive); in test [9], > 100 µM (inactive); in test [10], 87.9 µM (inactive); in [11] it was 45.7 µM (inactive); in test [12] it was 37.6 µM (inactive); in test [13], 31.6 µM (inactive). The GI50 in test [14] is 51.9 µM (inactive); in test [15] it was 89.3 µM (inactive); in [16] it was 18.4 µM (inactive); in [17], 37.5 µM (inactive); in [18], 51.5 µM (inactive); in test [19], 49.9 µM (inactive).

On to `COC1=NC(NC2OCC(O)C(O)C2O)=C(NC(C)=O)CN1C` (configuration not stated), for which the GI50 in [1], in [2], in [3], in [4], in test [5] and in [6] was > 100 µM (inactive) each time. Also, the GI50 in test [7], in test [9], in test [10], in test [11], in [12] and in test [13] was > 100 µM (inactive) throughout. Further, the GI50 in [14], in test [16], in test [17], in test [18] and in [19] was > 100 µM (inactive) throughout.

Regarding `O=C1NC(=O)C(c2c[nH]c3ccccc23)=C1c1cn(C(c2ccccc2)(c2ccccc2)c2ccccc2)cn1`, the GI50 in test [1] was 10.2 µM (inactive); in test [2], 3.13 µM (inactive); in [3], 4.76 µM (inactive); in test [4] it was 6.35 µM (inactive); in test [5], 12.5 µM (inactive); in test [6], 3.14 µM (inactive). Moreover, the GI50 in test [7] is 4.06 µM (inactive); in test [8] it was 11.2 µM (inactive); in test [9], 16.2 µM (inactive); in [10], 4.8 µM (inactive); in [11], 3.05 µM (inactive); in [12], 6.95 µM (inactive). Also, the GI50 in [13] is 8.75 µM (inactive); in test [14], 20.8 µM (inactive); in [16], 4.75 µM (inactive); in test [17] it was 3.73 µM (inactive); in test [18], 5.33 µM (inactive); in test [19] it was 7.13 µM (inactive).

Consider `Cc1ccc([N+](=O)[O-])cc1S(=O)(=O)Nc1ccc(C2=NN(C(=O)c3ccccc3)C(c3ccccc3O)C2)cc1` (configuration not stated), for which the GI50 in [1] is 17.1 µM (inactive); in [2], 11.5 µM (inactive); in test [3], 16.3 µM (inactive); in [4], 17.1 µM (inactive); in test [6], 19.1 µM (inactive); in test [7] it was 17.7 µM (inactive). The GI50 in test [8] was 17.3 µM (inactive); in test [9] it was 28.2 µM (inactive); in [10], 15.7 µM (inactive); in [11] it was 13.4 µM (inactive); in test [12], 18.3 µM (inactive); in test [13] it was 12.6 µM (inactive). Further, the GI50 was 22.8 µM (inactive) in [14]; 25.3 µM (inactive) in [15]; 21.5 µM (inactive) in test [16]; 14.3 µM (inactive) in test [17]; 13.9 µM (inactive) in test [18]; 12 µM (inactive) in test [19].

Turning to `C=C(Br)C(Br)(CCl)CCC(Cl)C(C)C.C=C(Cl)C(Br)(CCl)CCC(Cl)C(C)C` (configuration not stated), the GI50 is 0.889 µM (active) in [1]; 0.208 µM (active) in test [2]; 1.89 µM (inactive) in [3]; 1.79 µM (inactive) in [4]; 1.31 µM (inactive) in test [5]; 14.8 µM (inactive) in [6]. Further, the GI50 in [7] was 1.41 µM (inactive); in [8], 1.67 µM (inactive); in [9], 1.77 µM (inactive); in test [10] it was 1.74 µM (inactive); in test [11], 1.94 µM (inactive); in test [12] it was 0.299 µM (active). The GI50 in test [13] is 1.35 µM (inactive); in test [14], 2.49 µM (inactive); in test [15], 2.21 µM (inactive); in test [16] it was 1.71 µM (inactive); in test [17] it was 2.13 µM (inactive); in test [19], 1.87 µM (inactive).

For the compound `COC(CNC(=O)CNC(=O)c1ccc(C(F)(F)F)cc1)OC`, the GI50 in test [1], in [2], in [3], in test [4], in [5] and in test [6] was > 100 µM (inactive) throughout. Also, the GI50 in test [7], in test [8], in test [10], in test [11], in test [13] and in test [14] was > 100 µM (inactive) each time. Besides, the GI50 in test [16], in test [17], in test [18] and in test [19] was > 100 µM (inactive) throughout.

In the case of `Oc1c(OCc2nnc(CCCCCCCCc3nnc(COc4ccc5ccccc5c4O)n3Nc3ccccc3)n2Nc2ccccc2)ccc2ccccc12`, the GI50 in test [1] is 17.5 µM (inactive); in test [2] it was 0.682 µM (active); in test [3], 1.97 µM (inactive); in test [4], 8.69 µM (inactive); in test [5] it was 0.671 µM (active); in [6], 6.46 µM (inactive). Also, the GI50 is 8.28 µM (inactive) in [7]; 4.21 µM (inactive) in test [8]; 2.07 µM (inactive) in [9]; 0.845 µM (active) in test [10]; 3.52 µM (inactive) in test [11]; 7.08 µM (inactive) in test [13]. The GI50 in test [14] is 8.17 µM (inactive); in test [15] it was 0.261 µM (active); in test [16], 1.62 µM (inactive); in test [17], 0.558 µM (active); in test [18], 11.2 µM (inactive); in test [19], 15.7 µM (inactive).
